Measurements: EP2627439B1, “METHOD FOR SOLUBILIZING CARBOXYLIC ACID-CONTAINING COMPOUND IN HYDROCARBON SOLVENT” (Dow Global Technologies LLC, priority 2011, dated 2013)

Test: Solubility measurement of acid chlorides containing one carboxylic acid moiety in hydrocarbon solvents (saturated solutions, proton NMR)
Format: physicochemical
Settings: saturated solution, 20°C and 101 kPa
Procedure: Solubility measurement of acid chlorides containing one carboxylic acid moiety in hydrocarbon solvents with and without solubility enhancing additives: • Saturated solutions of sample acid chlorides containing carboxylic acid moieties were prepared in hydrocarbon solvents with and without the presence of trialkylphosphate additives by adding more sample than will dissolve in the solvent and decanting the saturated solvent from the undissolved precipitate. The saturated solutions were evaluated by proton NMR. Deuterated Isopar L is not commercially available, thus all spectra were acquired in the unlocked condition using regular Isopar L. Because of the very high proton concentration in running a non-deuterated solvent, 60° pulse and minimum receiver gain were used to avoid receiver overflow. A relaxation delay of 8 seconds was used for complete signal recovery between scans. The spectral width was set to 20 ppm and the center of the spectrum was set to 5 ppm. Depending on the concentrations of the species of interest, 64-256 scans were used for signal averaging.
The area of the Isopar L peaks between 0.75 and 2.0 ppm were measure and divided by 26 (which represents the average H's present in Isopar L, assuming a molecular formula of C12H26) and multiplied by 170.33, the formula weight of C12H26. The peak area of the aromatic acid chlorides containing carboxylates are between 8.9 - 9.2 ppm and are well resolved from the Isopar solvent. The integration of one of the assigned peaks (for example, the triplet of mono-hydrolyzed TMC at 9.0 ppm represents a single proton) was used to determine the relative weight of the sample in the Isopar L solvent. The integration is divided by the number of protons it represents and multiplied by the formula weight of the compound it represents (for example, the triplet of mono-hydrolyzed TMC at 9.0 ppm would be divided by 1 and multiplied by 247.03 g/mol). The wt% of mono-hydrolyzed TMC in the saturated solution is determined by dividing the value obtained for mono-hydrolyzed TMC by the value obtained for Isopar L.
In the presence of tributylphosphate (TBP), the Isopar L value must be corrected since a few protons of TBP cannot be resolved from the Isopar L peaks. This is done by integrating the -OCH2-protons of TBP which are well resolved at ∼4.05 ppm, dividing this value by 6 (for 6 protons). This area value is then multiplied by 21 (represents the three -CH2CH2CH3 that are unresolved from the Isopar L peak) and subtracted from the peak area of Isopar L. Table 2: […]

Row | Solubility (wt%) (Solvent: Isopar L + 0.47 wt% TBP) | Solubility (wt%) (Solvent: Isopar L, no additive) | Solubility (wt%) (Solvent: 80/20 Isopar L / Toluene, no additive) | Solubility (wt%) (Solvent: 80/20 Isopar L/Toluene + 0.25 wt% TBP) | Solubility (wt%) (Solvent: Isopar L + 1 wt% TEHP) | Solubility (wt%) (Solvent: Isopar L + 1 wt% TEP) | Structure (SMILES)
1 | 0.29 wt% | <0.02 wt% |  |  |  |  | O=C(O)c1cccc(C(=O)Cl)c1 [mhIPC]
2 |  | 0.02 wt% | 0.05 wt% | 0.29 wt% | 0.11 wt% | 0.2 wt% | O=C(O)c1cc(C(=O)Cl)cc(C(=O)Cl)c1 [mhTMC, mono-hydrolyzed trimesoyl chloride]
